# Columns and labels:
# [1] = system: Ba/F3-WT (wild type) cells; test: Ba/F3 Proliferation Assay, Ba/F3-WT (wild type) cells with mIL-3 (Resazurin); format: cell-based; conditions: Mus musculus, BaF3, 48 h, Ba/F3-WT cells +mIL-3, 48-hour incubation
# Syk = target: T1, Syk (Homo sapiens, UniProt P43405); test: Syk Biochemical Assay (ADP-Glo luminescence); conditions: ATP 40 μM final, 60 minutes, read-out: SYK Biochem IC50
# T1 construct: purchased Promega
# Description: Compounds were serially diluted in 100% DMSO, prior to an intermediate dilution in water. In a low volume white 384-well Proxiplate (Perkin Elmer), 1 μL of compound (0.4% final DMSO) was added to 3 μL of 10 ng/well Syk (Promega) and 0.2 mg/mL Poly-E4Y1 substrate (Promega) in assay buffer (final 40 mM Tris-HCl pH 7.4, 20 mM MgCl2, 0.1 mg/mL BSA) for 5 minutes. The reaction was initiated by addition of 1 μL of ATP (40 μM final) and allowed to proceed for 60 minutes at room temperature. The reaction was terminated by addition of 5 μL of ADP-Glo Reagent Mix (Promega) containing 1 mM MgCl2 for 45 minutes at room temperature. 10 μL of Kinase Detection Reagent (Promega) was added and incubated for 10 minutes at room temperature, before luminescence was measured using an Ensight Multimode Plate Reader (Perkin Elmer).
# Ba/F3-Syk cells = target: T2, Ba/F3-Syk cells (Homo sapiens, UniProt P43405); test: Ba/F3 Proliferation Assay, Ba/F3-Syk cells (Resazurin); format: cell-based; conditions: 48-hour incubation
# T2 construct: fused on or other part: Possible but unprinted fusion partner: TEL (ETV6), the usual partner for Ba/F3 lines transformed by Syk; Nothing on a partner is printed
EC50 [1] [nM],IC50 (Syk) [nM],EC50 (Ba/F3-Syk cells) [nM],Compound
3210,51.2,22.5,"COCCn1ccc(-c2cc(OC[C@@H]3CNCC4(CC4)O3)c3cccnc3c2)c1 [Compound 7.14, 7-[1-(2-methoxyethyl)-1H-pyrrol-3-yl]-5-{[(5S)-4-oxa-7-azaspiro[2.5]octan-5-yl]methoxy}quinoline]"
926,29.3,47.4,"CC(C)n1cc(-c2cc(OC[C@@H]3CNCCO3)c3cccnc3c2)cn1 [Compound 3.4, 5-{[(2S)-morpholin-2-yl]methoxy}-7-[1-(propan-2-yl)-1H-pyrazol-4-yl]quinoline]"
694,28.1,30.6,"c1cnc2cc(-c3cnn(C4CCC4)c3)nc(OC[C@@H]3CNCCO3)c2c1 [Compound 2.22, 7-(1-cyclobutyl-1H-pyrazol-4-yl)-5-{[(2S)-morpholin-2-yl]methoxy}-1,6-naphthyridine]"
6710,9.6,25.4,"CC(C)(C)n1ccc(-c2cc3ncccc3c(OC[C@@H]3CNCCO3)n2)c1 [Compound 2.58, 7-(1-tert-butyl-1H-pyrrol-3-yl)-5-{[(2S)-morpholin-2-yl]methoxy}-1,6-naphthyridine]"

# More lines, now with the values behind:
Compound,EC50 [1] [nM],IC50 (Syk) [nM],EC50 (Ba/F3-Syk cells) [nM]
"COc1ccnc2cc(-c3cnn(C(C)(C)C)c3)nc(OC[C@@H]3CNCC(C)(C)O3)c12 [Compound 14.15, 7-(1-tert-butyl-1H-pyrazol-4-yl)-5-{[(2S)-6,6-dimethylmorpholin-2-yl]methoxy}-4-methoxy-1,6-naphthyridine]",519,21.1,44
"COCCn1ccc(-c2cc(OC[C@@H]3CNCC(C)(C)O3)c3nccnc3c2)c1 [Compound 8.4, 5-{[(2S)-6,6-dimethylmorpholin-2-yl]methoxy}-7-[1-(2-methoxyethyl)-1H-pyrrol-3-yl]quinoxaline]",645,7.4,8.2
"C[C@@H]1CO[C@H](COc2nc(-c3cnn(C)c3)cc3ncccc23)CN1 (relative stereo) [Compound 2.27, 7-(1-methyl-1H-pyrazol-4-yl)-5-{[(rel-2S,5R)-5-methylmorpholin-2-yl]methoxy}-1,6-naphthyridine]",1500,247,305
"C[C@H]1CO[C@H](COc2nc(-c3cnn(C)c3)cc3ncccc23)CN1 (relative stereo) [Compound 2.26, 7-(1-methyl-1H-pyrazol-4-yl)-5-{[(rel-2S,5S)-5-methylmorpholin-2-yl]methoxy}-1,6-naphthyridine]",1450,131,216
"CC1(C)CNC[C@@H](COc2nc(-c3cnn(C4CC4)c3)cc3ncccc23)O1 [Compound 2.46, 7-(1-cyclopropyl-1H-pyrazol-4-yl)-5-{[(2S)-6,6-dimethylmorpholin-2-yl]methoxy}-1,6-naphthyridine]",3430,19,65
"Cn1ccc(-c2cc3ncccc3c(OC[C@@H]3CNCC4(CC4)O3)n2)c1 [Compound 2.60, 7-(1-methyl-1H-pyrrol-3-yl)-5-{[(5S)-4-oxa-7-azaspiro[2.5]octan-5-yl]methoxy}-1,6-naphthyridine]",4070,24.6,26.6
"FC(F)Cn1ccc(-c2cc(OC[C@@H]3CNCC4(CCC4)O3)c3nccnc3c2)c1 [Compound 8.19, 7-[1-(2,2-difluoroethyl)-1H-pyrrol-3-yl]-5-{[(6S)-5-oxa-8-azaspiro[3.5]nonan-6-yl]methoxy}quinoxaline]",872,6.5,6.4
"CC(C)(C)[C@H]1CNC[C@@H](COc2nc(-c3cnn(C(C)(C)C)c3)cc3ncccc23)O1 [Compound 2.100, 7-(1-tert-butyl-1H-pyrazol-4-yl)-5-{[(2S,6S)-6-tert-butylmorpholin-2-yl]methoxy}-1,6-naphthyridine]",3010,278,362
